Assay results as given in patent US9695155B2, “Herbicidal substituted pyrimidinyloxy benzene compounds” (E. I. DU PONT DE NEMOURS AND COMPANY, priority 2013, dated 2017).

Tests used:
barnyardgrass [1] = test: Test A preemergence; format: in vivo, Echinochloa crus-galli
Procedure, shortened: (§1)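 Scoring: eye-based comparison with untreated controls, 0 for no effect through 100 for complete control, at about day 10. Treatments: directed soil spray preemergence; foliar spray postemergence on 2–10 cm plants at the one- to two-leaf stage. Medium: loam soil with sand.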

kochia [2] = test: Test A preemergence; format: in vivo, Kochia scoparia; conditions: 1000 g ai/ha, 0 to 100 scale, 0 no effect, 100 complete control, approx. 10 days
Source text: (§2) Seeds of plant species selected from barnyardgrass (Echinochloa crus-galli), kochia (Kochia scoparia), ragweed (common ragweed, Ambrosia elatior), Italian ryegrass (Lolium multiflorum), large (Lg) crabgrass (Digitaria sanguinalis), giant foxtail (Setaria faberii), morningglory (Ipomoea spp.), pigweed (Amaranthus retroflexus), velvetleaf (Abutilon theophrasti), wheat (Triticum aestivum), and corn (Zea mays) were planted into a blend of loam soil and sand and treated preemergence with a directed soil spray using test chemicals formulated in a non-phytotoxic solvent mixture which included a surfactant.
(§3) At the same time, plants selected from these crop and weed species and also blackgrass (Alopecurus myosuroides), and galium (catchweed bedstraw, Galium aparine) were planted in pots containing the same blend of loam soil and sand and treated with postemergence applications of test chemicals formulated in the same manner. Plants ranged in height from 2 to 10 cm and were in the one- to two-leaf stage for the postemergence treatment. Treated plants and untreated controls were maintained in a greenhouse for approximately 10 days, after which time all treated plants were compared to untreated controls and visually evaluated for injury. Plant response ratings, summarized in Table A, are based on a 0 to 100 scale where 0 is no effect and 100 is complete control. A dash (-) response means no test result.

ragweed [3] = test: Test A preemergence; format: in vivo, Ambrosia elatior; conditions: 1000 g ai/ha, 0 to 100 scale, 0 no effect, 100 complete control, approx. 10 days
Source text: as §2, §3

Italian ryegrass [4] = test: Test A preemergence; format: in vivo, Lolium multiflorum; conditions: 1000 g ai/ha, 0 to 100 scale, 0 no effect, 100 complete control, approx. 10 days
Source text: as §2, §3

giant foxtail [5] = test: Test A preemergence; format: in vivo, Setaria faberii
Procedure, shortened: as §1

pigweed [6] = test: Test A preemergence; format: in vivo, Amaranthus retroflexus
Procedure, shortened: as §1

barnyardgrass [7] = test: Test A postemergence; format: in vivo, Echinochloa crus-galli
Procedure, shortened: as §1

kochia [8] = test: Test A postemergence; format: in vivo, Kochia scoparia; conditions: 1000 g ai/ha, 0 to 100 scale, 0 no effect, 100 complete control
Source text: as §2, §3

ragweed [9] = test: Test A postemergence; format: in vivo, Ambrosia elatior; conditions: 1000 g ai/ha, 0 to 100 scale, 0 no effect, 100 complete control
Source text: as §2, §3

Italian ryegrass [10] = test: Test A postemergence; format: in vivo, Lolium multiflorum; conditions: 1000 g ai/ha, 0 to 100 scale, 0 no effect, 100 complete control
Source text: as §2, §3

giant foxtail [11] = test: Test A postemergence; format: in vivo, Setaria faberii
Procedure, shortened: as §1

pigweed [12] = test: Test A postemergence; format: in vivo, Amaranthus retroflexus
Procedure, shortened: as §1

wheat [13] = test: Test A postemergence; format: in vivo, Triticum aestivum
Procedure, shortened: as §1

corn [14] = test: Test A postemergence; format: in vivo, Zea mays
Procedure, shortened: as §1

blackgrass = test: Test A postemergence; format: in vivo, Alopecurus myosuroides; conditions: 1000 g ai/ha, 0 to 100 scale, 0 no effect, 100 complete control
Source text: as §2, §3

galium = test: Test A postemergence; format: in vivo, Galium aparine; conditions: 1000 g ai/ha, 0 to 100 scale, 0 no effect, 100 complete control
Source text: as §2, §3

large (Lg) crabgrass [15] = test: Test A preemergence; format: in vivo, Digitaria sanguinalis
Procedure, shortened: as §1

morningglory [16] = test: Test A preemergence; format: in vivo, Ipomoea spp.
Procedure, shortened: as §1

velvetleaf [17] = test: Test A preemergence; format: in vivo, Abutilon theophrasti
Procedure, shortened: as §1

wheat [18] = test: Test A preemergence; format: in vivo, Triticum aestivum
Procedure, shortened: as §1

corn [19] = test: Test A preemergence; format: in vivo, Zea mays
Procedure, shortened: as §1

large (Lg) crabgrass [20] = test: Test A postemergence; format: in vivo, Digitaria sanguinalis
Procedure, shortened: as §1

morningglory [21] = test: Test A postemergence; format: in vivo, Ipomoea spp.
Procedure, shortened: as §1

velvetleaf [22] = test: Test A postemergence; format: in vivo, Abutilon theophrasti
Procedure, shortened: as §1

rice = test: Test B flooded paddy test; format: in vivo, Oryza sativa; conditions: Flood, 250 g ai/ha; 0 to 100 scale where 0 is no effect and 100 is complete control
Procedure, shortened: (§4)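 Plants were grown to the 2-leaf stage, then pots were flooded to 3 cm above the soil and compounds were applied directly into the paddy water. That depth was held throughout, and after 13 to 15 days in the greenhouse injury was rated visually against controls on a 0–100 scale (0 no effect, 100 complete control).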

sedge, umbrella = test: Test B flooded paddy test; format: in vivo, Cyperus difformis; conditions: Flood, 250 g ai/ha; 0 to 100 scale where 0 is no effect and 100 is complete control
Procedure, shortened: as §4

Heteranthera limosa = test: Test B flooded paddy test; format: in vivo; conditions: Flood, 250 g ai/ha; 0 to 100 scale where 0 is no effect and 100 is complete control
Procedure, shortened: as §4

barnyardgrass [23] = test: Test B flooded paddy test; format: in vivo, Echinochloa crus-galli; conditions: Flood, 250 g ai/ha; 0 to 100 scale where 0 is no effect and 100 is complete control
Procedure, shortened: as §4

[24] = 1000 g ai/ha, 0 to 100 scale, 0 no effect, 100 complete control, approx. 10 days
[25] = 1000 g ai/ha, 0 to 100 scale, 0 no effect, 100 complete control
[26] = 500 g ai/ha, 0 to 100 scale where 0 is no effect and 100 is complete control
[27] = 125 g ai/ha, 0 to 100 scale, 0 no effect, 100 complete control

## NC(=O)c1cnn(-c2ccccc2Oc2ncc(Cl)cn2)c1 [Compound 281]
Barnyardgrass [1]; [24]
  Barnyardgrass plant response rating: 0
Kochia [2]
  Kochia plant response rating: 0
Ragweed [3]
  Ragweed plant response rating: 30
Italian ryegrass [4]
  Ryegrass, Italian plant response rating: 10
Giant foxtail [5]; [24]
  Foxtail, Giant plant response rating: 0
Pigweed [6]; [24]
  Pigweed plant response rating: 60
Barnyardgrass [7]; [25]
  Plant response rating, Barnyardgrass: 0
Kochia [8]
  Plant response rating, Kochia: 70
Ragweed [9]
  Plant response rating, Ragweed: 70
Italian ryegrass [10]
  Plant response rating, Ryegrass, Italian: 0
Giant foxtail [11]; [25]
  Plant response rating, Foxtail, Giant: 0
Pigweed [12]; [25]
  Plant response rating, Pigweed: 70
Wheat [13]; [25]
  Plant response rating, Wheat: 0
Corn [14]; [25]
  Plant response rating, Corn: 10
blackgrass
  Plant response rating, Blackgrass: 0
galium
  Plant response rating, Galium: 60

## CC(C)(C)NS(=O)(=O)c1cnn(-c2ccccc2Oc2ncc(Cl)cn2)c1 [Compound 283]
Barnyardgrass [1]; [24]
  Barnyardgrass plant response rating: 0
Kochia [2]
  Kochia plant response rating: 0
Ragweed [3]
  Ragweed plant response rating: 0
Italian ryegrass [4]
  Ryegrass, Italian plant response rating: 0
Giant foxtail [5]; [24]
  Foxtail, Giant plant response rating: 0
Pigweed [6]; [24]
  Pigweed plant response rating: 0
Barnyardgrass [7]; [25]
  Plant response rating, Barnyardgrass: 0
Kochia [8]
  Plant response rating, Kochia: 10
Ragweed [9]
  Plant response rating, Ragweed: 20
Italian ryegrass [10]
  Plant response rating, Ryegrass, Italian: 0
Giant foxtail [11]; [25]
  Plant response rating, Foxtail, Giant: 0
Pigweed [12]; [25]
  Plant response rating, Pigweed: 20
Wheat [13]; [25]
  Plant response rating, Wheat: 0
Corn [14]; [25]
  Plant response rating, Corn: 0
blackgrass
  Plant response rating, Blackgrass: 10
galium
  Plant response rating, Galium: 30

## C[Si](C)(C)c1cn(-c2c(Br)cccc2Oc2ncc(Cl)cn2)nn1 [Compound 300]
Barnyardgrass [1]; [24]
  Barnyardgrass plant response rating: 20
Kochia [2]
  Kochia plant response rating: 60
Ragweed [3]
  Ragweed plant response rating: 0
Italian ryegrass [4]
  Ryegrass, Italian plant response rating: 20
Giant foxtail [5]; [24]
  Foxtail, Giant plant response rating: 80
Pigweed [6]; [24]
  Pigweed plant response rating: 100
Barnyardgrass [7]; [25]
  Plant response rating, Barnyardgrass: 0
Kochia [8]
  Plant response rating, Kochia: 20
Ragweed [9]
  Plant response rating, Ragweed: 0
Italian ryegrass [10]
  Plant response rating, Ryegrass, Italian: 0
Giant foxtail [11]; [25]
  Plant response rating, Foxtail, Giant: 30
Pigweed [12]; [25]
  Plant response rating, Pigweed: 60
Wheat [13]; [25]
  Plant response rating, Wheat: 0
Corn [14]; [25]
  Plant response rating, Corn: 10
blackgrass
  Plant response rating, Blackgrass: 0
galium
  Plant response rating, Galium: 40

## N#Cc1cccc(Oc2ncc(Cl)cn2)c1-n1cc([N+](=O)[O-])cn1 [Compound 304]
Barnyardgrass [1]; 125 g ai/ha
  Barnyardgrass plant response rating (0 to 100 scale, 0 is no effect, 100 is complete control): 0
Barnyardgrass [1]; [26]
  Barnyardgrass plant response rating: 0
Large (Lg) crabgrass [15]; 125 g ai/ha
  Crabgrass, Large plant response rating (0 to 100 scale): 0
Large (Lg) crabgrass [15]; [26]
  Crabgrass, Large plant response rating: 10
Giant foxtail [5]; 125 g ai/ha
  Foxtail, Giant plant response rating (0 to 100 scale): 0
Giant foxtail [5]; [26]
  Foxtail, Giant plant response rating: 0
Morningglory [16]; 125 g ai/ha
  Morningglory plant response rating (0 to 100 scale): 0
Morningglory [16]; [26]
  Morningglory plant response rating: 0
Pigweed [6]; 125 g ai/ha
  Pigweed plant response rating (0 to 100 scale): 0
Pigweed [6]; [26]
  Pigweed plant response rating: 0
Velvetleaf [17]; 125 g ai/ha
  Velvetleaf plant response rating (0 to 100 scale): 0
Velvetleaf [17]; [26]
  Velvetleaf plant response rating: 0
Wheat [18]; 125 g ai/ha
  Wheat plant response rating (0 to 100 scale): 0
Wheat [18]; [26]
  Wheat plant response rating: 0
Corn [19]; 125 g ai/ha
  Corn plant response rating (0 to 100 scale): 0
Corn [19]; [26]
  Corn plant response rating: 0
Barnyardgrass [7]; [27]
  Plant response rating, Barnyardgrass: 0
Barnyardgrass [7]; [26]
  Plant response rating, Barnyardgrass: 0
Large (Lg) crabgrass [20]; [27]
  Plant response rating, Crabgrass, Large: 0
Large (Lg) crabgrass [20]; [26]
  Plant response rating, Crabgrass, Large: 0
Giant foxtail [11]; [27]
  Plant response rating, Foxtail, Giant: 0
Giant foxtail [11]; [26]
  Plant response rating, Foxtail, Giant: 0
Morningglory [21]; [27]
  Plant response rating, Morningglory: 0
Morningglory [21]; [26]
  Plant response rating, Morningglory: 0
Pigweed [12]; [27]
  Plant response rating, Pigweed: 30
Pigweed [12]; [26]
  Plant response rating, Pigweed: 50
Velvetleaf [22]; [27]
  Plant response rating, Velvetleaf: 0
Velvetleaf [22]; [26]
  Plant response rating, Velvetleaf: 0
Wheat [13]; [27]
  Plant response rating, Wheat: 0
Wheat [13]; [26]
  Plant response rating, Wheat: 0
Corn [14]; [27]
  Plant response rating, Corn: 0
Corn [14]; [26]
  Plant response rating, Corn: 0
rice
  Plant response rating, Rice: 0
sedge, umbrella
  Plant response rating, Sedge, Umbrella: 0
Heteranthera limosa
  Plant response rating, Ducksalad: 0
Barnyardgrass [23]
  Plant response rating, Barnyardgrass: 0
